Data from PubChem BioAssay (NCI).
“And” between values parts separate entries of the source, which are not always exact repeats. Equal entries are not always repeated.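 These data come from cells grown in 96-well plates and exposed to compound for 48 hours at five concentrations. At the GI50, growth is halved. TGI is the concentration that stops growth completely.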

What was measured:
Assay in all cases: DTP human tumour cell line panel, 48 h
HCC-2998 colon = test system: HCC-2998 colon
HT29 colon = test system: HT29 colon
NCI-H522 lung = test system: NCI-H522 lung
CCRF-CEM leukemia = test system: CCRF-CEM leukemia
MOLT-4 leukemia = test system: MOLT-4 leukemia
SN12C renal = test system: SN12C renal
SK-OV-3 ovarian = test system: SK-OV-3 ovarian
SK-MEL-5 melanoma = test system: SK-MEL-5 melanoma
MDA-N = test system: MDA-N
COLO 205 colon = test system: COLO 205 colon

Row | Compound | TGI (HCC-2998 colon) [µM] | TGI (HT29 colon) [µM] | TGI (NCI-H522 lung) [µM] | TGI (CCRF-CEM leukemia) [µM] | TGI (MOLT-4 leukemia) [µM] | TGI (SN12C renal) [µM] | TGI (SK-OV-3 ovarian) [µM] | TGI (SK-MEL-5 melanoma) [µM] | TGI (MDA-N) [µM] | TGI (COLO 205 colon) [µM] | GI50 (NCI-H522 lung) | GI50 (HCC-2998 colon) [µM] | GI50 (HT29 colon) [µM] | GI50 (SK-OV-3 ovarian) [µM] | GI50 (SK-MEL-5 melanoma) [µM] | GI50 (COLO 205 colon) [µM] | GI50 (CCRF-CEM leukemia) [µM] | GI50 (MOLT-4 leukemia) | GI50 (SN12C renal) [µM]
1 | O=C(NCCCN(CCCCN(CCCNC(=O)C(F)(F)F)Cc1ccc2ccccc2c1)Cc1ccc2ccccc2c1)C(F)(F)F | 2.93 | 2.57 | > 100 | > 100 | > 100 | > 100 | > 100 | 3.38 | – | – | – | – | – | – | – | – | – | – | –
2 | CC1(C)C2CC(=O)C1(C)C(O)C2Br (stereo not given) | > 100 | > 100 | – | > 100 | > 100 | > 100 | > 100 | > 100 | > 100 | – | – | – | – | – | – | – | – | – | –
3 | NC(CC1=CS(=O)(=O)c2ccc(Cl)cc21)C(=O)O (stereo not given) | – | > 100 | > 100 | – | > 100 | > 100 | > 100 | > 100 | > 100 | > 100 | – | – | – | – | – | – | – | – | –
4 | COc1c(O)c2c3c(c(C)cc(O)c3c1O)C(=O)C(O)(C(C)(C)C(C)=O)C2=O (stereo not given) | – | > 100 | > 100 | > 100 | > 100 | > 100 | > 100 | > 100 | – | > 100 | 49.7 µM and > 100 µM | – | – | – | – | – | – | – | –
5 | Nc1nc(N)c(N=O)c(Nc2ccc(Br)cc2)n1 | > 100 | 52.3 | > 100 | > 100 | – | > 100 | > 100 | – | – | 38.8 | – | – | – | – | – | – | – | – | –
6 | COc1ccc(-c2c3c([nH]c(=S)c2C#N)CC(C)(C)CC3=O)cc1 | > 100 | > 100 | > 100 | > 100 | > 100 | > 100 | – | > 100 | > 100 | – | – | – | – | – | – | – | – | – | –
7 | O=C(Cc1ccccc1)NN1C(=O)/C(=C\c2ccccc2)SC1=Nc1ccccc1 | > 100 | > 100 | – | – | > 100 | > 100 | > 100 | > 100 | > 100 | > 100 | – | – | – | – | – | – | – | – | –
8 | N/C(=N\S(=O)(=O)c1c(C(F)(F)F)cccc1C(F)(F)F)Nc1ccc(Cl)cc1 | – | > 100 | 30.6 | – | > 100 | 78.1 | > 100 | 35.6 | > 100 | 33.1 | – | – | – | – | – | – | – | – | –
9 | CC1CN=C(N(C(=O)Nc2ccc(F)c(Cl)c2)c2ccccc2)S1 (stereo not given) | – | 58 | – | > 100 | 62.2 | 49.9 | 98.7 | 30 | 34.7 | 38.9 | – | – | – | – | – | – | – | – | –
10 | O=c1ccn(C2OC(CO)C(P(=O)(O)O)C2O)c(=O)[nH]1 (stereo not given) | > 100 | > 100 | > 100 | > 100 | > 100 | > 100 | – | > 100 | > 100 | – | – | – | – | – | – | – | – | – | –
11 | N=C(N)c1ccc(-c2ccc(-c3cccs3)s2)cc1 | 2.17 | 2.6 | – | – | – | – | 9.64 | 2.99 | – | – | – | 0.747 | 1.24 | 4.15 | 1.6 | – | – | – | –
12 | CC(C(=O)N1C(=O)N(C(=O)C(C)C(O)c2ccccc2)C2CCCCC21)C(O)c1ccccc1 (stereo not given) | – | – | > 100 | > 100 | 87.1 | > 100 | – | > 100 | – | > 100 | – | – | – | – | – | – | – | – | –
13 | CC1=NN(C(=O)CC(=O)Nc2ccccc2F)C(=O)C1N=Nc1ccccc1[N+](=O)[O-] (stereo not given) | – | > 100 | > 100 | > 100 | > 100 | > 100 | > 100 | 33.5 | – | > 100 | – | – | – | – | – | – | – | – | –
14 | C=C1c2cc3c(cc2CC12Cc1cc4c(cc1C2=O)CCC4)CCC3 (stereo not given) | > 100 | > 100 | > 100 | > 100 | > 100 | – | > 100 | > 100 | > 100 | – | – | – | – | – | – | – | – | – | –
15 | O=C(CN(c1ccccc1)c1ccccc1)N1c2ccccc2C2C=CC=CC21 (stereo not given) | 22.7 | > 56.5 | 49 | > 36.3 | > 22.6 | 34.4 | > 56.4 | 29.9 | – | 24.7 | – | – | – | – | – | – | – | – | –
16 | CCC1=CC2CN3Cn4c(c(COCc5c6n(c7ccccc57)CN5CC7C=C(CC)C5C6(C(=O)OC)C7)c5ccccc54)C(C(=O)OC)(C2)C13 | – | > 100 | > 100 | > 100 | > 100 | > 100 | > 100 | > 100 | – | > 100 | – | – | – | – | – | – | – | – | –
17 | Cc1cn(-c2cc(C(=O)Nc3cccc(-n4ccc5c(NC(=O)c6ccccc6)nccc54)c3)cc(C(F)(F)F)c2)cn1 | 4.79 | 1.04 | 8.21 | 2.09 | 10.6 | 17.1 | 3.53 | 0.76 | – | 1.71 | 0.375 µM | 0.862 | 0.29 | 0.325 | 0.195 | 0.525 | 0.299 | 0.531 µM | 1.04
18 | COc1nc2ncc([C@@H](OC(C)=O)[C@@H](COC(C)=O)OC(C)=O)nc2c(=O)[nH]1 | – | > 100 | > 100 | > 100 | > 100 | > 100 | > 100 | > 100 | > 100 | > 100 | > 100 µM and 41.7 µM | – | – | – | – | – | – | > 100 µM and 49.9 µM | –
19 | CC(C)=CCC/C(C)=C/COC(C)(C)C1=CCC(C)CC1 (stereo not given) (tested in a mixture with another compound) | > 100 | > 100 | > 100 | – | 36.2 | > 100 | > 100 | > 100 | > 100 | > 100 | – | – | – | – | – | – | – | – | –
20 | O=[N+]([O-])c1ccc(/C=C/c2cc(-c3ccccc3)nc3ccc4ccccc4c23)cc1 | > 100 | > 100 | – | > 100 | > 100 | > 100 | > 100 | > 100 | > 100 | > 100 | – | – | – | – | – | – | – | – | –
21 | S=C(/N=c1\sc(Nc2ccc(Cl)cc2)nc2sc3c(c12)CCN(N1CCc2c(sc4nc(Nc5ccc(Cl)cc5)s/c(=N\C(=S)Nc5ccc(Cl)cc5)c24)C1)C3)Nc1ccc(Cl)cc1 | – | 36.1 | > 100 | – | > 100 | 38.5 | 66.4 | – | 30.8 | > 100 | – | – | – | – | – | – | – | – | –
22 | CC(=O)OCC1OC(n2cc(I)c(=O)[nH]c2=O)C(OC(C)=O)C(OC(C)=O)C1OC(C)=O (stereo not given) | > 100 | > 100 | > 100 | > 100 | > 100 | > 100 | > 100 | > 100 | – | > 100 | – | – | – | – | – | – | – | – | –
